From DBAASP
Converted amounts (≈) assume the structure as drawn.

How the values were obtained:
Assay in all cases: ≥ marks a high value that may be exact or a test limit, other limits are often not marked, values filed in µg/mL are converted to µM
[1] = test system: Aeromonas hydrophila
[2] = test system: Vibrio harveyi
[3] = test system: Salmonella enterica ATCC 6539
[4] = test system: Klebsiella pneumoniae ATCC 700603
[5] = test system: Pseudomonas aeruginosa ATCC 27853
[6] = test system: Acinetobacter baumannii ATCC BAA-747
[7] = test system: Staphylococcus aureus ATCC 43300
[8] = test system: Enterococcus faecium ATCC 700221
[9] = test system: Escherichia coli ATCC 25922
[10] = test system: Escherichia coli W3110
[11] = test system: Klebsiella pneumoniae ATCC BAA-1705
[12] = test system: Pseudomonas aeruginosa LMG 6395
[13] = test system: Escherichia coli LMG 15862
[14] = test system: Acinetobacter baumannii LMG 01041
[15] = test system: Klebsiella aerogenes LMG 02094
[16] = test system: Klebsiella pneumoniae LMG 20218
[17] = test system: Bacillus cereus ATCC 11778
[18] = test system: Acinetobacter baumannii
[19] = test system: Escherichia coli O157:H7
[20] = test system: Staphylococcus aureus ATCC 25923
[21] = test system: Vibrio cholerae O1 Inaba
[22] = test system: Shigella sonnei ATCC 11060
[23] = test system: Salmonella enterica subsp. enterica serovar Typhimurium ATCC 13311
[24] = test system: Staphylococcus epidermidis ATCC 12228
[25] = test system: Listeria monocytogenes 10403s
[26] = test system: Enterococcus faecalis ATCC 29212
[27] = test system: Cryptococcus neoformans ATCC 32264
[28] = test system: Staphylococcus aureus NCTC 12981
[29] = test system: Escherichia coli NCTC 10418

CC[C@H](C)[C@H](NC(=O)[C@H](C)NC(=O)[C@H](CCCN=C(N)N)NC(=O)[C@H](Cc1cnc[nH]1)NC(=O)[C@@H](NC(=O)[C@H](C)NC(=O)[C@H](CCCN=C(N)N)NC(=O)[C@@H](NC(=O)CNC(=O)[C@H](Cc1cnc[nH]1)NC(=O)[C@H](CO)NC(=O)[C@@H](NC(=O)[C@H](Cc1c[nH]c2ccccc12)NC(=O)CNC(=O)[C@@H](NC(=O)[C@@H](NC(=O)[C@H](Cc1cnc[nH]1)NC(=O)[C@H](Cc1cnc[nH]1)NC(=O)[C@@H](NC(=O)[C@@H](N)Cc1ccccc1)[C@@H](C)CC)[C@@H](C)CC)[C@@H](C)CC)[C@@H](C)CC)C(C)C)[C@@H](C)CC)C(=O)N[C@@H](Cc1cnc[nH]1)C(N)=O [FIHHIIGWISHGVRAIHRAIH]
MIC [1]: 16 µM (≈ 39.5 µg/mL) | MIC [2]: 8 µM (≈ 19.8 µg/mL)

NCC(=O)NCC(=O)N[C@@H](Cc1cnc[nH]1)C(=O)NCC(=O)N[C@@H](Cc1c[nH]c2ccccc12)C(=O)N[C@@H](CCCN=C(N)N)C(=O)N[C@@H](Cc1c[nH]c2ccccc12)C(=O)N[C@@H](Cc1ccc(O)cc1)C(=O)N[C@@H](CS)C(=O)N[C@@H](CCCN=C(N)N)C(N)=O [GGHGWRWYCR]
MIC [3]: 6 µM (≈ 7.66 µg/mL) | MIC [4]: 25 µM (≈ 31.9 µg/mL) | MIC [5]: 25 µM (≈ 31.9 µg/mL) | MIC [6]: 25 µM (≈ 31.9 µg/mL) | MIC [7]: 3 µM (≈ 3.83 µg/mL) | MIC [8]: 25 µM (≈ 31.9 µg/mL) | MIC [9]: 3 µM (≈ 3.83 µg/mL)

CC[C@H](C)[C@H](N)C(=O)N[C@@H](CC(C)C)C(=O)N[C@@H](Cc1c[nH]c2ccccc12)C(=O)N[C@@H](C)C(=O)N[C@@H](CCCCN)C(=O)N[C@@H](Cc1c[nH]c2ccccc12)C(=O)NCC(=O)N[C@@H](CC(C)C)C(=O)N[C@@H](CCCCN)C(=O)N[C@@H](CC(C)C)C(=O)N[C@@H](CC(C)C)C(=O)N[C@@H](CCCN=C(N)N)C(=O)N[C@@H](Cc1ccc(O)cc1)C(=O)N[C@@H](CCCN=C(N)N)C(=O)N[C@@H](CCCN=C(N)N)C(=O)N[C@H](C(=O)N[C@@H](Cc1ccc(O)cc1)C(=O)O)[C@@H](C)CC [ILWAKWGLKLLRYRRIY]
MIC [10]: 4 µM (≈ 9 µg/mL) | MIC [11]: ≥ 64 µM

CC[C@H](C)[C@H](NC(=O)[C@H](CCCN=C(N)N)NC(=O)[C@H](CCCCN)NC(=O)[C@H](CCCN=C(N)N)NC(=O)[C@@H](NC(=O)[C@@H](N)CCCN=C(N)N)[C@@H](C)CC)C(=O)N[C@@H](CCCCN)C(=O)N[C@@H](CCCCN)C(=O)N[C@@H](Cc1c[nH]c2ccccc12)C(=O)N[C@@H](CC(C)C)C(=O)N[C@@H](CCCN=C(N)N)C(N)=O [RIRKRIKKWLR]
MIC [12]: 16 µM (≈ 24.8 µg/mL) | MIC [13]: 16 µM (≈ 24.8 µg/mL) | MIC [14]: ≥ 256 µM | MIC [15]: ≥ 256 µM | MIC [16]: ≥ 256 µM

CC[C@H](C)[C@H](NC(=O)[C@H](CCCN=C(N)N)NC(=O)[C@H](CCCCN)NC(=O)[C@H](CCCCN)NC(=O)[C@@H](NC(=O)[C@H](CCCCN)NC(=O)[C@H](CCC(=O)O)NC(=O)[C@H](CCCCN)NC(=O)[C@@H](N)CCCN=C(N)N)[C@@H](C)CC)C(=O)NCC(=O)N[C@@H](CCCCN)C(=O)N[C@H](C(=O)N[C@@H](CC(=O)O)C(=O)N[C@@H](CCCN=C(N)N)C(=O)N[C@@H](CC(C)C)C(N)=O)[C@@H](C)CC [RKEKIKKRIGKIDRL]
MIC [17]: ≥ 133 µM | MIC [18]: ≥ 133 µM | MIC [19]: ≥ 133 µM | MIC [20]: > 133 µM | MIC [21]: ≥ 133 µM | MIC [5]: > 133 µM | MIC [22]: ≥ 133 µM | MIC [23]: ≥ 133 µM | MIC [24]: > 133 µM | MIC [25]: ≥ 133 µM | MIC [26]: > 133 µM | MIC [9]: > 133 µM

NCCCC[C@H](NC(=O)[C@H](CCCCN)NC(=O)[C@H](CCC(N)=O)NC(=O)[C@@H](N)CCCN=C(N)N)C(N)=O [RQKK]
MIC [27]: ≥ 100 µM

NC(=O)CC[C@H](NC(=O)[C@H](CCCN=C(N)N)NC(=O)[C@H](CCCN=C(N)N)NC(=O)[C@@H](N)Cc1c[nH]c2ccccc12)C(=O)N[C@@H](CCCN=C(N)N)C(=O)N[C@@H](Cc1c[nH]c2ccccc12)C(N)=O [WRRQRW]
MIC [28]: ≥ 130 µM | MIC [29]: ≥ 130 µM
